Columns and labels:
Conditions in all cases: incubation time: 72 h
[1] = test system: BT-474; assay: normalised response (% of control), CellTox Green; higher = less cell death (100 = DMSO, 0 = benzethonium chloride kill control)
Procedure, shortened: (§1)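 Normalised signals at single concentrations make up the values. They come from breast cancer cell lines seeded (20 µl suspension) into 384-well plates with compound at 5 concentrations in 10-fold steps over a compound-specific 10,000-fold range, incubated 72 h, and read for CellTox Green fluorescence then CellTiter-Glo luminescence. Each plate was normalised to 0.1 % DMSO (100) and a positive kill control (0).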

[2] = test system: BT-549; assay: as above
Procedure, shortened: as §1

[3] = test system: CAL-120; assay: as above
Procedure, shortened: as §1

[4] = test system: CAL-148; assay: as above
Procedure, shortened: as §1

[5] = test system: CAL-51; assay: as above
Procedure, shortened: as §1

[6] = test system: CAL-85-1; assay: as above
Procedure, shortened: as §1

[7] = test system: DU-4475; assay: as above
Procedure, shortened: as §1

[8] = test system: HCC1143; assay: as above
Procedure, shortened: as §1

[9] = test system: HCC1599; assay: as above
Procedure, shortened: as §1

[10] = test system: HCC1937; assay: as above
Procedure, shortened: as §1

[11] = test system: HDQ-P1; assay: as above
Procedure, shortened: as §1

[12] = test system: Hs578T; assay: as above
Procedure, shortened: as §1

[13] = test system: MCF-10A; assay: as above
Procedure, shortened: as §1

[14] = test system: MDA-MB-231; assay: as above
Procedure, shortened: as §1

[15] = test system: MDA-MB-436; assay: as above
Procedure, shortened: as §1

[16] = test system: MDA-MB-453; assay: as above
Procedure, shortened: as §1

[17] = test system: MFM-223; assay: as above
Procedure, shortened: as §1

[18] = test system: BT-474; assay: normalised response (% of control), CellTiter-Glo; higher = more viable cells (100 = DMSO, 0 = benzethonium chloride kill control)
Procedure, shortened: as §1

[19] = test system: BT-549; assay: as above
Procedure, shortened: as §1

[20] = test system: CAL-120; assay: as above
Procedure, shortened: as §1

[21] = test system: CAL-148; assay: as above
Procedure, shortened: as §1

[22] = test system: CAL-51; assay: as above
Procedure, shortened: as §1

[23] = test system: CAL-85-1; assay: as above
Procedure, shortened: as §1

[24] = test system: DU-4475; assay: as above
Procedure, shortened: as §1

[25] = test system: HCC1143; assay: as above
Procedure, shortened: as §1

[26] = test system: HCC1599; assay: as above
Procedure, shortened: as §1

[27] = test system: HCC1937; assay: as above
Procedure, shortened: as §1

[28] = test system: HDQ-P1; assay: as above
Procedure, shortened: as §1

[29] = test system: Hs578T; assay: as above
Procedure, shortened: as §1

[30] = test system: MCF-10A; assay: as above
Procedure, shortened: as §1

[31] = test system: MDA-MB-231; assay: as above
Procedure, shortened: as §1

[32] = test system: MDA-MB-436; assay: as above
Procedure, shortened: as §1

[33] = test system: MDA-MB-453; assay: as above
Procedure, shortened: as §1

[34] = test system: MDA-MB-468; assay: as above
Procedure, shortened: as §1

[35] = test system: MFM-223; assay: as above
Procedure, shortened: as §1

[36] = test system: SK-BR-3; assay: as above
Procedure, shortened: as §1

[37] = test system: MDA-MB-468; assay: normalised response (% of control), CellTox Green; higher = less cell death (100 = DMSO, 0 = benzethonium chloride kill control)
Procedure, shortened: as §1

SMILES | normalised response [1] | normalised response [2] | normalised response [3] | normalised response [4] | normalised response [5] | normalised response [6] | normalised response [7] | normalised response [8] | normalised response [9] | normalised response [10] | normalised response [11] | normalised response [12] | normalised response [13] | normalised response [14] | normalised response [15] | normalised response [16] | normalised response [17] | normalised response [18] | normalised response [19] | normalised response [20] | normalised response [21] | normalised response [22] | normalised response [23] | normalised response [24] | normalised response [25] | normalised response [26] | normalised response [27] | normalised response [28] | normalised response [29] | normalised response [30] | normalised response [31] | normalised response [32] | normalised response [33] | normalised response [34] | normalised response [35] | normalised response [36] | normalised response [37]
S=P(N1CC1)(N1CC1)N1CC1 [Thio-TEPA] (5000 nM) | 100% | 109% | 100% | 102% | 29.6% | 95.8% | 99.2% | 62.1% | 93.5% | 109% | 96% | 85.2% | 109% | 109% | 94.6% | 101% | 98.8% | 94.4% | 91.7% | 96.5% | 93% | 68.9% | 97.2% | 102% | 96.1% | 112% | 96.4% | 99.5% | 108% | 100% | 96.2% | 97.4% | 109% | 100% | 105% | 105% | –
COc1cc2c(NC3CCN(C(C)C)CC3)nc(N3CCC(F)(F)CC3)nc2cc1OCCCN1CCCC1 [UNC0642] (1 nM) | – | – | – | – | – | – | – | – | – | – | – | – | – | – | – | – | – | 92.3% | 97.9% | 94.2% | 87.2% | 103% | 93.2% | 97.5% | 95% | 88.9% | 94.5% | 92.7% | 99.3% | 102% | 96% | 89.2% | 105% | 95.9% | 91.2% | 93.1% | –
COc1cc2c(NC3CCN(C(C)C)CC3)nc(N3CCC(F)(F)CC3)nc2cc1OCCCN1CCCC1 [UNC0642] (10 nM) | – | – | – | – | – | – | – | – | – | – | – | – | – | – | – | – | – | 97.7% | 97.7% | 95.2% | 88.6% | 86.3% | 96.6% | 94.6% | 95.3% | 96.5% | 98.2% | 97.4% | 107% | 102% | 95.3% | 101% | 92% | 89% | 88.4% | 108% | –
COc1cc2/c(=N/c3ccc(Br)cc3F)nc[nH]c2cc1OCC1CCN(C)CC1 [Vandetanib] (0.1 nM) | – | – | – | – | – | – | – | – | – | – | – | – | – | – | – | – | – | 89.3% | 105% | 90.8% | 76.8% | 115% | 90.3% | 91% | 88.7% | 82.4% | 88.2% | 93.2% | 98.6% | 72.8% | 97.3% | 80.6% | 93.6% | 93.2% | 85.2% | 78% | –
COc1cc2/c(=N/c3ccc(Br)cc3F)nc[nH]c2cc1OCC1CCN(C)CC1 [Vandetanib] (100 nM) | 98% | 102% | 83% | 88.6% | 70.7% | 98.6% | 92% | 85.6% | 87% | – | – | 92% | 103% | 85.4% | 84.2% | 90.5% | 98.8% | 84.7% | 89% | 94.4% | 96.5% | 83.3% | 99.3% | 90.1% | 86.2% | 102% | 90.6% | 83% | 94.1% | 57.3% | 89.2% | 91.2% | 88% | 83.5% | 82.5% | 77.7% | 67.6%
COCC[n+]1c2c(n(Cc3cnccn3)c1C)C(=O)c1ccccc1C2=O [YM155] (10 nM) | – | – | – | – | – | – | – | – | – | – | – | – | – | – | – | – | – | 25.6% | 91.5% | 7.43% | 85% | 77.8% | 31.8% | 101% | 56.4% | 43.3% | 55.7% | 79.8% | 95.2% | 88.1% | 37.6% | 26.6% | 66.2% | 11.8% | 75.3% | 69.8% | –
